Data reported in article PMC11258614 (2024).
Where a SMILES comes first, the peptide text is derived from it.

Experiments:
[1] = system: human c-Myc promoter G4 (DNA, G4) TGAGGGTGGGTAGGGTGGGTAA; experiment: UV melting at 295 nm; conditions: 30 mM sodium cacodylate pH 7.4, 0.5 mM EDTA, 4 μM DNA, DNA:peptide 1:50, derived from two Tm
[2] = system: human c-Myc promoter G4 (DNA, G4) TGAGGGTGGGTAGGGTGGGTAA; experiment: fluorescence titration of peptide with G4; conditions: 30 mM sodium cacodylate pH 7.4, 0.5 mM EDTA, 25 °C, printed Ka in μM, Ka or Kd ambiguous

ΔTm ([1]; 100 mM K+): 0.9 °C
ΔTm ([1]; 100 mM Na+): 3.7 °C
Ka ([2]; 100 mM K+): 0.1277 ± 0.073 µM
Ka ([2]; 100 mM Na+): 0.1369 ± 0.008 µM
SMILES: CC(C)C[C@H](NC(=O)[C@@H](N)CC(N)=O)C(=O)N[C@@H](CCC(=O)O)C(=O)N[C@@H](CCCCN)C(=O)N[C@@H](CCCCN)C(=O)N[C@@H](CCCCN)C(=O)N1CCC[C@H]1C(=O)NCC(=O)O (H-NLEKKKPG-OH)
